According to patent US8703698B2, “Compositions and methods for treating atherosclerosis” (The University of Chicago, priority 2003, dated 2014):

What was measured:
[1] = tested on: cholesterol ester hydrolase; test: Rate of hydrolysis of cholesteryl ester in cholesterol-laden J774 cells (cholesterol ester hydrolase activity); format: cell-based, murine
ApoE knockout mice = test: Prevention of aortic lesions in ApoE knockout mice on high fat diet; format: in vivo; conditions: liposomes intravenously once every four days, five doses at 6 mg/kg; 20 days high fat diet
Description: In prevention experiments, ApoE knockout mice were placed on a high fat diet and at the same time received once every four days liposomes containing a peptide corresponding to amino acids 1-20 of murine SAA2.1 (SEQ ID NO:1; Group 2 of FIG. 8A and Group hf+p1 of FIG. 8B), liposomes containing a peptide corresponding to amino acids 74-103 of murine SAA2.1 (SEQ ID NO:4; Group 4 of FIG. 8A and Group hf+p4 of FIG. 8B) or liposomes containing a peptide corresponding to amino acids 1-20 of murine SAA2.1 and a peptide corresponding to amino acids 74-103 of murine SAA2.1 (SEQ ID NO:1+SEQ ID NO:4; Group 5 of FIG. 8A and Group hf+p(1+4) of FIG. 8B). The control group received high fat diet alone with no liposomes (Group 1 of FIG. 8A and Group high fat of FIG. 8B). An additional group was placed on a normal mouse chow diet (Group 3 of FIG. 8A and Group low fat of FIG. 8B). […]
To assess the effects of the peptides on aortic atherosclerosis, at the termination of the experiment, the aorta was removed from the animals and opened longitudinally. The endothelial surface was stained with Oil Red O and the area occupied by lipid was measured by image analysis. Furthermore, histological sections of aorta were prepared for microscopic analysis and total lipids were isolated to measure the quantity of cholesterol per weight of tissue. […]

J774 macrophages = test: [3H]cholesterol efflux from cholesterol-loaded J774 macrophages in tissue culture; format: cell-based, mouse; conditions: for cholesterol efflux compared to equimolar liposomes containing full length murine SAA2.1 protein (FIG. 10): cholesterol-laden J774 cells, equimolar concentrations; for cholesterol efflux as compared to controls (FIGS. 3A and 3B) / dose-response of cholesterol efflux (FIGS. 3A and 3B): liposomes; for cholesterol efflux as compared to controls (FIGS. 3A and 3B): peptide at 1 μM (alone printed 1 μl), cholesterol-laden murine macrophages; for dose-response of cholesterol efflux (FIGS. 3A and 3B): 0.05, 0.1, 0.5, 1.0, 2.5 and 5.0 μM; for total cellular [3H]cholesterol released into the medium: pre-incubated 4 hours with liposomes containing 0.5 μM peptide, then cultured in presence of HDL (50 μg/mL)

Row | Molecule | increase in cholesterol ester hydrolase activity ([1]; liposomes containing 0.5 μl synthetic peptide, cholesterol-laden J774 cells, Sandoz 58-035 present, 0 to 24 hours) | aortic lesions, area stained with Oil Red O, versus control animals (FIGS. 8A and 8B) (ApoE knockout mice) | cholesterol efflux compared to equimolar liposomes containing full length murine SAA2.1 protein (FIG. 10) (J774 macrophages) | cholesterol efflux as compared to controls (FIGS. 3A and 3B) (J774 macrophages) | dose-response of cholesterol efflux (FIGS. 3A and 3B) (J774 macrophages) | total cellular [3H]cholesterol released into the medium (J774 macrophages) | rate of [3H]cholesterol efflux into medium containing HDL (J774 macrophages; pre-incubation with liposomes containing 0.5 μM peptide, HDL as acceptor) | rate of hydrolysis of [14C]-labeled cholesteryl oleate versus protein-free liposomes ([1]; liposomes containing 0.5 μl synthetic peptide, J774 cells, Sandoz 58-035 present) | cholesterol ester hydrolase activity in intact cholesterol-laden macrophages ([1]; lipoproteins or protein liposomes, tissue culture)
1 | DTIADQEANRHGRSGKDPNYYRPPGLPDKY [SEQ ID NO:4, synthetic peptide, residues 74-103 of murine SAA2.1] | 3 fold | showed decreased aortic lesions | statistically significant greater cholesterol efflux | approximately 200% | increased with increasing amounts of each peptide alone | 46.7 ± 3.1% | significant increase in the rate | – | –
2 | GFFSFVHEAFQGAGDMWRAY [SEQ ID NO:1, synthetic peptide, residues 1-20 of murine SAA2.1] | – | showed decreased aortic lesions | statistically significant greater cholesterol efflux | approximately 200% | increased with increasing amounts of each peptide alone | 60.6 ± 3.6% | – | no significant differences | –
3 | GFFSFVHEAFQGAGDMWRAYTDMKEANWKNSDKYFHARGNYDAAQRGPGGVWAAEKISD GREAFQEFFGRGHEDTIADQEANRHGRSGKDPNYYRPPGLPDKY (protein, listed as Mus musculis, full length murine serum amyloid A isoform 2.1 purified from acute phase plasma) GFFSFVHEAFQGAGDMWRAYTDMKEANWKNSDKYFHARGNYDAAQRGPGGVWAAEKISDGREAFQEFFGRGHEDTIADQEANRHGRSGKDPNYYRPPGLPDKY | – | – | – | – | – | – | – | – | enhancement of cholesterol ester hydrolase activity
